Results: EPA's ToxValDB 9.5 (doi:10.2903/j.efsa.2006.57r)
In brackets after ≈: the same amount, converted by molar mass.

What was measured:
[1] = tested on: Apis mellifera; conditions: acute, mortality
[2] = tested on: Ictalurus punctatus; conditions: acute; duration: 96 hours; mortality
[3] = tested on: Rattus norvegicus; conditions: oral
[4] = tested on: Daphnia magna; conditions: chronic/long-term; duration: 21 days; mortality
[5] = tested on: Anas platyrhynchos; conditions: acute; oral; unspecified; mortality
[6] = tested on: Oryctolagus sp.; conditions: reproduction developmental
[7] = tested on: Tagia sp.; conditions: acute; mortality
[8] = tested on: Cucumis sativus; conditions: not reported; other
[9] = tested on: Canidae; conditions: chronic; duration: 1 years; oral; Dog Other; body weight
[10] = tested on: Pimephales promelas; conditions: chronic/long-term; duration: 35 days; other
[11] = tested on: Colinus virginianus; conditions: reproduction developmental; F
[12] = tested on: Aphidius rhopalosiphi; assay: LR50; higher = less toxic; conditions: not reported; mortality
[13] = tested on: Typhlodromus pyri; assay: LR50; higher = less toxic; conditions: not reported; mortality

With CCOC(=O)C1CC(=O)C(=C(O)C2CC2)C(=O)C1 (stereo not given) [Trinexapac-ethyl] the LD50 ([1]; dermal) was 69.6 µg/piece, the LD50 ([1]; oral, unspecified) was over 108 µg/piece and the LC50 [2] was 35 mg/L (≈ 139 µM). The LD50 ([3]; acute, mortality) was 4210 mg/kg, the NOAEL ([3]; subchronic, duration: 90 days, body weight) was at most 34 mg/kg-day and the NOEC [4] was 2.4 mg/L. The LD50 [5] was over 2000 mg/kg, the NOAEL [6] was 60 mg/kg-day and the LC50 [7] was over 250 mg/kg. It also gave an NOEC [8] of over 24 g/ha, an NOAEL [9] of 32 mg/kg-day and an NOEC [10] of 0.41 mg/L. For the same molecule, the NOEC [11] was at least 53.3 mg/kg-day, the LR50 [12] was 114 g/ha and the LR50 [13] was 197 g/ha.
